{
  "source": "patent US12344820B2",
  "about": "“Laundry detergent and fabric care compositions with sulfonamides for odor removal from fabrics” (Rem Brands, Inc., priority 2019, dated 2025)",
  "assay": "Soaking of sweaty polyester workout shirts in BENZ solution, subjective scent rating by a group of people",
  "settings": "for Post Dry average scent rating: 30 min soak, after shirt dried; for Post Wet average scent rating: after 30 minutes of soaking; for Pre Soak average scent rating: shirt smelled before soaking (baseline)",
  "excerpt": "Polyester workout shirts were worn without deodorant during a one-hour workout to induce copious amounts of sweat. The shirts were kept in sealed plastic bags for several days, mimicking normal wash schedule delay. The shirts were then soaked in buckets containing various amounts of N-chloro-4-carboxybenzenesulfonamide (BENZ). The bucket contained either zero (control), 0.02 wt %, 0.04 wt %, or 0.15 wt % of the BENZ (e.g. 0.02 grams BENZ per 100 grams of water, w/w). No agitation, spinning, or moving of any kind occurred during the soaking. After 30 minutes of soaking, the shirts were wrung out and laid to dry.\nThe shirts were smelled before soaking (Pre Soak), after the 30 minutes of soaking (Post Wet), and after they were dried (Post Dry) by a group of people who subjectively rated the scent of the shirt on a scale of 0 (no smell) to 10 (extremely smelly).",
  "key": {"[1]": {"settings": "0.02 wt % BENZ in water, scale 0 to 10"}, "[2]": {"settings": "0.04 wt % BENZ in water, scale 0 to 10"}, "[3]": {"settings": "0.15 wt % BENZ in water, scale 0 to 10"}},
  "data": [
    {"smiles": "O=C(O)c1ccc(S(=O)(=O)NCl)cc1", "note": "[BENZ, N-chloro-4-carboxybenzenesulfonamide]", "values": [
      {"measurement": "Post Dry average scent rating", "setting": "[1]", "result": 5},
      {"measurement": "Post Wet average scent rating", "setting": "[1]", "result": 5},
      {"measurement": "Water average scent rating", "setting": "[1]", "result": 7},
      {"measurement": "Pre Soak average scent rating", "setting": "0.02 wt % BENZ in water, scale 0 (no smell) to 10 (extremely smelly)", "result": 10},
      {"measurement": "effect on malodor", "setting": "0.02 wt % concentration", "result": "reduced the intensity of the malodor significantly"},
      {"measurement": "Post Dry average scent rating", "setting": "[2]", "result": 4},
      {"measurement": "Post Wet average scent rating", "setting": "[2]", "result": 5},
      {"measurement": "Water average scent rating", "setting": "[2]", "result": 5},
      {"measurement": "Pre Soak average scent rating", "setting": "[2]", "result": 10},
      {"measurement": "effect on malodor", "setting": "0.04 wt % concentration", "result": "reduced the intensity of the malodor significantly"},
      {"measurement": "Post Dry average scent rating", "setting": "[3]", "result": 0},
      {"measurement": "Post Wet average scent rating", "setting": "[3]", "result": 1},
      {"measurement": "Water average scent rating", "setting": "[3]", "result": 2},
      {"measurement": "Pre Soak average scent rating", "setting": "[3]", "result": 10},
      {"measurement": "effect on malodor", "setting": "0.15 wt % concentration, once the shirt was dry", "result": "eradicated the malodor completely"}
    ]}
  ]
}
